Assays:
[1] = biological target: AP2-associated protein kinase 1 (Homo sapiens) (UniProt Q2M2I8); assay: Inhibition of human AAK1 assessed as residual activity at 10 uM using peptide as substrate incubated for 120 mins in presence of [gamma-33ATP] by scintillation counting based radiometry assay relative to control
[2] = test system: Tyrosine-protein kinase ABL1 (Homo sapiens), P00519 [Y253F]; assay: Inhibition of human ABL1 Y253F mutant (27 to end residues) assessed as residual activity at 10 uM using EAIYAAPFAKKK as substrate incubated for 40 mins in presence of [gamma-33ATP] by scintillation counting based radiometry assay relative to control
[3] = biological target: Activin receptor type-1 (Homo sapiens) (UniProt Q04771); assay: Inhibition of human ALK2 (147 to end residues) assessed as residual activity at 10 uM using casein as substrate incubated for 40 mins in presence of [gamma-33ATP] by scintillation counting based radiometry assay relative to control
[4] = biological target: Tyrosine-protein kinase ABL2 (Homo sapiens) (UniProt P42684); assay: Inhibition of human Arg (38 to end residues) assessed as residual activity at 10 uM using EAIYAAPFAKKK as substrate incubated for 40 mins in presence of [gamma-33ATP] by scintillation counting based radiometry assay relative to control
[5] = biological target: CDC7/Cyclin B1 (Homo sapiens) (UniProt P14635+O00311); assay: Inhibition of recombinant full length human CD7/CyclinB1 assessed as residual activity at 10 uM using Histone H1 as substrate incubated for 40 mins in presence of [gamma-33ATP] by scintillation counting based radiometry assay relative to control; format: protein-complex assay
Chain of CDC7/Cyclin B1 (Homo sapiens) (O00311 whole entry, looked up): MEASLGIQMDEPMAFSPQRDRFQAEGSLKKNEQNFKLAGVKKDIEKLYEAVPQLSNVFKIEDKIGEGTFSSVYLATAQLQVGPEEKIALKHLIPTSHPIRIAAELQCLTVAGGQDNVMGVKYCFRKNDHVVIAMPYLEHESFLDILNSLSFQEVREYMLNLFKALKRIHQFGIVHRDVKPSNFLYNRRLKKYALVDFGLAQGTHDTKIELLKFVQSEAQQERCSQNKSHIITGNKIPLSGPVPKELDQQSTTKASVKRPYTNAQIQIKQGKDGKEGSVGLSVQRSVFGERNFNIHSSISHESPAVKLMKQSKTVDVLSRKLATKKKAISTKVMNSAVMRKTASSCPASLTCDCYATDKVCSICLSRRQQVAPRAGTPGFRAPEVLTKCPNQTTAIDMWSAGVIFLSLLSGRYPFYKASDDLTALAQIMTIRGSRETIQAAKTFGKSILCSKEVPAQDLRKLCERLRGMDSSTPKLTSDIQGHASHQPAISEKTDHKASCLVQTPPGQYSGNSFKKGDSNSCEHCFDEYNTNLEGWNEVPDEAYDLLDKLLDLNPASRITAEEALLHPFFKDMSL
Chain of CDC7/Cyclin B1 (Homo sapiens) (P14635 whole entry, looked up): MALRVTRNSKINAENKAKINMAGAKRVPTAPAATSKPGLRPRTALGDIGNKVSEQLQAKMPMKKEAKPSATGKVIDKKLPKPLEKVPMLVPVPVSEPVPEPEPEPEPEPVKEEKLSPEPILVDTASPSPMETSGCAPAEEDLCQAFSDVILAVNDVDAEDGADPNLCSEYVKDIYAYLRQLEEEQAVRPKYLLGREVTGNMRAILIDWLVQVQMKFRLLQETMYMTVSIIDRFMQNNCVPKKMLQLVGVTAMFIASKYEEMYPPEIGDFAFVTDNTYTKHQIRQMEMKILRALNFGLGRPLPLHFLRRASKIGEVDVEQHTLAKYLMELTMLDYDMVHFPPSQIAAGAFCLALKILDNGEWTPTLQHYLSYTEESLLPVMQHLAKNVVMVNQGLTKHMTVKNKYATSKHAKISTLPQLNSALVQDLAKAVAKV

[6] = biological target: Tyrosine-protein kinase Fgr (Homo sapiens) (UniProt P09769); assay: Inhibition of recombinant human FGR (2 to end residues) assessed as residual activity at 10 uM using poly(Glu, Tyr) 4:1 as substrate at 40 mins in presence of [gamma-33ATP] by scintillation counting based radiometry assay relative to control
[7] = biological target: Mitogen-activated protein kinase kinase kinase kinase 1 (Homo sapiens) (UniProt Q92918); assay: Inhibition of human HPK1 (1 to 346 residues) assessed as residual activity at 10 uM using myelin basic protein as substrate after 40 mins by [gamma-33ATP] radiometric assay relative to control
[8] = species on record: Homo sapiens; assay: Inhibition of recombinant human MARK1 T20S mutant (2 to end residues) assessed as residual activity at 10 uM using KKKVSRSGLYRSPSMPENLNRPR as substrate incubated for 40 mins in presence of [gamma-33ATP by scintillation counting based radiometry assay relative to control
[9] = test system: Hepatocyte growth factor receptor (Homo sapiens), P08581 [Y1230C]; assay: Inhibition of recombinant human MET A1209G/V1290L/Y1248C mutant (974 to end residues) assessed as residual activity at 10 uM using KKKGQEEEYVFIE as substrate incubated for 40 mins in presence of [gamma-33ATP by scintillation counting based radiometry assay relative to control
[10] = biological target: Serine/threonine-protein kinase PAK 3 (Homo sapiens) (UniProt O75914); assay: Inhibition of recombinant full-length human PAK3 assessed as residual activity at 10 uM using RRRLSFAEPG as substrate measured after 40 mins in presence of [gamma33P]ATP by scintillation counting based radiometry assay relative to control
[11] = biological target: Serine/threonine-protein kinase pim-2 (Homo sapiens) (UniProt Q9P1W9); assay: Inhibition of recombinant human Pim2 (2 to end residues) assessed as residual activity at 10 uM using RSRHSSYPAG as substrate incubated for 40 mins in presence of [gamma33P]ATP by scintillation counting based radiometry assay relative to control
[12] = test system: RAC-gamma serine/threonine-protein kinase (Homo sapiens), Q9Y243 [S472D]; assay: Inhibition of recombinant human PKBgamma S472D mutant (117 to end residues) assessed as residual activity at 10 uM using GRPRTSSFAEGKK as substrate incubated for 40 mins in presence of [gamma33P]ATP by scintillation counting based radiometry assay relative to control
[13] = biological target: Interferon-induced, double-stranded RNA-activated protein kinase (Homo sapiens) (UniProt P19525); assay: Inhibition of recombinant human PKR (252 to end residues) assessed as residual activity at 10 uM using RSRSRSRSRSRSRSR as substrate incubated for 40 mins in presence of [gamma33P]ATP by scintillation counting based radiometry assay relative to control
[14] = biological target: Ribosomal protein S6 kinase alpha-2 (Homo sapiens) (UniProt Q15349); assay: Inhibition of recombinant full length human Rsk3 assessed as residual activity at 10 uM using KKKNRTLSVA as substrate incubated for 40 mins in presence of [gamma33P]ATP by scintillation counting based radiometry assay relative to control
Chain of Ribosomal protein S6 kinase alpha-2 (Homo sapiens) (Q15349 whole entry, the tested form may be a part): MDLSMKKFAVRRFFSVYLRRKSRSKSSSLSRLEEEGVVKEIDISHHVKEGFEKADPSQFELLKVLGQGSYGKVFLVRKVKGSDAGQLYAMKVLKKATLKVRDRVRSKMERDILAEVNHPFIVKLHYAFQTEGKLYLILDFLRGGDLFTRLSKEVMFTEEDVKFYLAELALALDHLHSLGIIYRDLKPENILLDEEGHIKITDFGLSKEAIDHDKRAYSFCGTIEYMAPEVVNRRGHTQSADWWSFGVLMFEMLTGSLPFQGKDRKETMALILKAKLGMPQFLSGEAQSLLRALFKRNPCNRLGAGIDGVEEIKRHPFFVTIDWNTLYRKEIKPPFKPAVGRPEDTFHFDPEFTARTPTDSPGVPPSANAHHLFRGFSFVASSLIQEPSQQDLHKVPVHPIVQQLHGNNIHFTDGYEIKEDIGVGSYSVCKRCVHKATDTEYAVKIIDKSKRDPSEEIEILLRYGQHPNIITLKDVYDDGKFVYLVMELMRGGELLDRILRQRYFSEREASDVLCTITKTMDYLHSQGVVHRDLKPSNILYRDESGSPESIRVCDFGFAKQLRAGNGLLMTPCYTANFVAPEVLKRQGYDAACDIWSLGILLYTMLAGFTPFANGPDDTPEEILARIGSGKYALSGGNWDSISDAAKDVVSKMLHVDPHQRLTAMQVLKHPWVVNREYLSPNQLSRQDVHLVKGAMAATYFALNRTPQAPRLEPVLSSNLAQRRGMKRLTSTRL

[15] = biological target: Serine/threonine-protein kinase SIK3 (Homo sapiens) (UniProt Q9Y2K2); assay: Inhibition of recombinant human SIK3 (1 to 307 residues) assessed as residual activity at 10 uM using KKKVSRSGLYRSPSMPENLNRPR as substrate incubated for 40 mins in presence of [gamma33P]ATP by scintillation counting based radiometry assay relative to control
Chain of Serine/threonine-protein kinase SIK3 (Homo sapiens) (Q9Y2K2 whole entry, looked up, the tested form may be a part): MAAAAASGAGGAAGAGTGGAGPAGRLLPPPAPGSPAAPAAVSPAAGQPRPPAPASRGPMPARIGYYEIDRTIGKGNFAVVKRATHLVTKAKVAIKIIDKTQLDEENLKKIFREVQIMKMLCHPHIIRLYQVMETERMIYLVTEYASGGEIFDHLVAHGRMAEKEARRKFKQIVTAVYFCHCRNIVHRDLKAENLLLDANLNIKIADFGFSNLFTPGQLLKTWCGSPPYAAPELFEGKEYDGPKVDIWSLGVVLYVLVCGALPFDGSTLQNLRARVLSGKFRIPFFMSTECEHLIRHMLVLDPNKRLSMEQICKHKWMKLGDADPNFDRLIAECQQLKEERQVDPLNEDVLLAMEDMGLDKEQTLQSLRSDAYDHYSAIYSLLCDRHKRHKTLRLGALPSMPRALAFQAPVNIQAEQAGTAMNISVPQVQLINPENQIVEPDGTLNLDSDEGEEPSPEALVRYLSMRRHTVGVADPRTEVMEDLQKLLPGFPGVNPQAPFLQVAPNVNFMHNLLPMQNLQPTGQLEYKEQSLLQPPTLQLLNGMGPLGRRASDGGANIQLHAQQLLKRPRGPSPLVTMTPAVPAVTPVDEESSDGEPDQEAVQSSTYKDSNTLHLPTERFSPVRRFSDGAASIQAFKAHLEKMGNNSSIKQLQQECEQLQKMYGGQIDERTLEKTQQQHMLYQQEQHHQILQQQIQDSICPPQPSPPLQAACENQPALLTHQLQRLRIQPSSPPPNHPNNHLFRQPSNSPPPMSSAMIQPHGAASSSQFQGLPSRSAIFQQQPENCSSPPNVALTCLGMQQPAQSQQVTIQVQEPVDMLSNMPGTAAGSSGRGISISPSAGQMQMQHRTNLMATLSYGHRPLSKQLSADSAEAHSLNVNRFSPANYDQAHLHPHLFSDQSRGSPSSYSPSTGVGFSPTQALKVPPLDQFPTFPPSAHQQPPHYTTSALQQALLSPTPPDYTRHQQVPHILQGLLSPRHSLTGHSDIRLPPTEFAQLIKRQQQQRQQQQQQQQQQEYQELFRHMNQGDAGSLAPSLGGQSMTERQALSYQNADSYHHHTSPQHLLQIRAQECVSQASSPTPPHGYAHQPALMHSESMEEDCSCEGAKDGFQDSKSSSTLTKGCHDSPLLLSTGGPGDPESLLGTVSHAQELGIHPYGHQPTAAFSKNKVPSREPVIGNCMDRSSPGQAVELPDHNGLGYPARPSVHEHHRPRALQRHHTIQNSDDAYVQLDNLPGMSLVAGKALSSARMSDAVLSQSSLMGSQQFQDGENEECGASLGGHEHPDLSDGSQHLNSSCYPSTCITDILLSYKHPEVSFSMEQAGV

[16] = biological target: Tyrosine-protein kinase Srms (Homo sapiens) (UniProt Q9H3Y6); assay: Inhibition of recombinant human SRMS assessed as residual activity at 10 uM presence of [gamma33P]ATP by scintillation counting based radiometry assay relative to control
[17] = biological target: Testis-specific serine/threonine-protein kinase 1 (Homo sapiens) (UniProt Q9BXA7); assay: Inhibition of recombinant full-length human TSSK1 assessed as residual activity at 10 uM using KKKVSRSGLYRSPSMPENLNRPR as substrate incubated for 40 mins in presence of [gamma33P]ATP by scintillation counting based radiometry assay relative to control
Chain of Testis-specific serine/threonine-protein kinase 1 (Homo sapiens) (Q9BXA7 whole entry, the tested form may be a part): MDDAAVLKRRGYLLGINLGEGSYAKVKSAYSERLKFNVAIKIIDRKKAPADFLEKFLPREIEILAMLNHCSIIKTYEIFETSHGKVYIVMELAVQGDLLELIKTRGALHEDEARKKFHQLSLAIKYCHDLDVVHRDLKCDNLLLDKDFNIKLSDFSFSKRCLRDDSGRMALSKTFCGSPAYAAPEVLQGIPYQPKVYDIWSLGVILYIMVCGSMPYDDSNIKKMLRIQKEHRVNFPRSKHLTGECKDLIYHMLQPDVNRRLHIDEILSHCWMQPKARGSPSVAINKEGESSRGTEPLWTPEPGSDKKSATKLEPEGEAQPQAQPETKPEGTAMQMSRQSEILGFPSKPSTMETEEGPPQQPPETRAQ

[18] = biological target: Serine/threonine-protein kinase WNK4 (Homo sapiens) (UniProt Q96J92); assay: Inhibition of recombinant human WNK4 (A31 to D461 residues) assessed as residual activity at 10 uM using myelin basic protein as substrate incubated for 40 mins in presence of [gamma33P]ATP by scintillation counting based radiometry assay relative to control
[19] = biological target: Death-associated protein kinase 3 (Homo sapiens) (UniProt O43293); assay: Inhibition of recombinant human ZIPK (1 to 290 residues) assessed as residual activity at 10 uM using KKLNRTLSFAEPG substrate incubated for 40 mins in presence of [gamma33P]ATP by scintillation counting based radiometry assay relative to control
[20] = species on record: Mus musculus; assay: Inhibition of recombinant full length mouse PI3K p110/p85 E545K mutant assessed as residual activity at 10 uM using phosphatidylinositol-4, 5-bisphosphate as substrate incubated for 40 mins in presence of [gamma33P]ATP by scintillation counting based radiometry assay relative to control
[21] = biological target: LIM domain kinase 2 (Homo sapiens) (UniProt P53671); assay: Inhibition of recombinant human LIMK2 assessed as residual activity after 10 uM by scintillation counting based radiometry assay relative to control
Chain of LIM domain kinase 2 (Homo sapiens) (P53671 whole entry, looked up, the tested form may be a part): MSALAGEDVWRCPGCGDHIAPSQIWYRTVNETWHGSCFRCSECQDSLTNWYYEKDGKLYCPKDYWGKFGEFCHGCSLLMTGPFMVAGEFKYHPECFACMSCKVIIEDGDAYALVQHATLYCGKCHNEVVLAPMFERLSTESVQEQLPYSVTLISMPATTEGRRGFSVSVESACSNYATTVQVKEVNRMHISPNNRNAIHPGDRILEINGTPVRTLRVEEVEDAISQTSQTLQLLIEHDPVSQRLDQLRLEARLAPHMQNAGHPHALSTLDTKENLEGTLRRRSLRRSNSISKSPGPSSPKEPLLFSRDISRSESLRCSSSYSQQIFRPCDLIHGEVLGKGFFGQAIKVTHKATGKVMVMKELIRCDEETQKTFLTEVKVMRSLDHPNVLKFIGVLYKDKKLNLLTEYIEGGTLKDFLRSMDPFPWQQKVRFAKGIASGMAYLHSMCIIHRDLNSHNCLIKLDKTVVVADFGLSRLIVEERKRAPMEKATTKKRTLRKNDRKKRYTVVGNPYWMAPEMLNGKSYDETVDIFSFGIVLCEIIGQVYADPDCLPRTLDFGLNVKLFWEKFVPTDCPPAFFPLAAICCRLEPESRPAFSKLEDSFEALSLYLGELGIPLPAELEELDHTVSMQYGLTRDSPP

Chain of AP2-associated protein kinase 1 (Homo sapiens) (Q2M2I8 whole entry, looked up): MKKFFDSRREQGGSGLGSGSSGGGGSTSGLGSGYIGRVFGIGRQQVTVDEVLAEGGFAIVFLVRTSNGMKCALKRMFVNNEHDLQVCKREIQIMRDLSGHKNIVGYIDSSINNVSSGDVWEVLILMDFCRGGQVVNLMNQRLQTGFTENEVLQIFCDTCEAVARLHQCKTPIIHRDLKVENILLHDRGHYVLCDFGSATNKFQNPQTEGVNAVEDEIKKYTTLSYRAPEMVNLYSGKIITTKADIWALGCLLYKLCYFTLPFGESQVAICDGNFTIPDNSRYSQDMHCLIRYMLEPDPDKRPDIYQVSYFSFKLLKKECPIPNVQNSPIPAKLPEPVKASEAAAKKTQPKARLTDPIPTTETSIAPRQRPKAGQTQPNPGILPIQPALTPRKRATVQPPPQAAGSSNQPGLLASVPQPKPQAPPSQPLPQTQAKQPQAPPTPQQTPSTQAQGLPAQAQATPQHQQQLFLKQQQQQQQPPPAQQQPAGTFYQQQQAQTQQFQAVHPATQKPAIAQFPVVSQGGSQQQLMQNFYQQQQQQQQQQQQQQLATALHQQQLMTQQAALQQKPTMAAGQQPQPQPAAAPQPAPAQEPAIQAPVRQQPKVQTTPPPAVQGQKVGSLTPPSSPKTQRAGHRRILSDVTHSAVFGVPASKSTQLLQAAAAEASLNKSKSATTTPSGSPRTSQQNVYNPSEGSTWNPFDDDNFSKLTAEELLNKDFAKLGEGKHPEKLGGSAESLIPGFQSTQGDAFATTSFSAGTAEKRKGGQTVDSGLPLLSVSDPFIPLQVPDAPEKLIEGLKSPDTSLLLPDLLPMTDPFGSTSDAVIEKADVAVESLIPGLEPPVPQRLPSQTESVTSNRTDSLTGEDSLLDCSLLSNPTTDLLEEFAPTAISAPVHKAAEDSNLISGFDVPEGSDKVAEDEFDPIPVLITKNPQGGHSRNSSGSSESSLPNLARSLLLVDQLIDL

Compound `C[C@@H](c1ccccc1)n1nnc2cnc3ccc(-c4cnc5[nH]ccc5c4)cc3c21` has an Activity [1] of 78%, an Activity [2] of 6% and an Activity [3] of 88%. For the same compound, the Activity [4] was 1%, the Activity [5] was 63% and the Activity [6] was 5%. For the same compound, the Activity [7] was 84%, the Activity [8] was 76% and the Activity [9] was 49%. The Activity [10] was 136%, the Activity [11] was 80% and the Activity [12] was 48%. For the same compound, the Activity [13] was 81%, the Activity [14] was 93% and the Activity [15] was 20%. It also gave an Activity [16] of 30%, an Activity [17] of 74% and an Activity [18] of 96%. It also gave an Activity [19] of 69%, an Activity [20] of 1% and an Activity [21] of 56%.
